Results on eight molecules are retold here after patent US11666640B2, “Glucose oxidase compositions as a neonate anticonvulsant” (PENN STATE RESEARCH FOUNDATION, priority 2018, dated 2023).

Data set [1] concerns neonatal seizures. The conditions noted are these: infant babies, clinical trial (Pressler et al.); cited from earlier work.
In data set [2] the test system is GABAA-R reversal potential (EGABA). In words: Gramicidin-perforated whole-cell recording of GABAA-R reversal potential (EGABA) in CA3 pyramidal neurons. The data set is classed as cell-based, mouse. The note with it: for positive EGABA shift induced by 0 Mg2+ aCSF: neonatal CA3 neurons; for EGABA in 0 Mg2+ aCSF: neonatal P8-P9, 0 Mg2+ aCSF; for EGABA in 0 Mg2+ aCSF / EGABA in normal aCSF: bumetanide 10 μM, VU0240551 10 μM, NaGcA 20 mM; for EGABA in normal aCSF: neonatal P8-P9. As to the method:
To further test this idea, the GABAA-R reversal potential (EGABA), which governs GABA excitatory versus inhibitory function, was directly measured using gramicidin-perforated whole-cell recordings in neonatal mouse brain slices (e.g., P8-P9). As expected, epileptiform activity induced a large depolarizing shift in EGABA after treating hippocampal slices with 0 Mg^2+ aCSF for 1 h (aCSF: −59.2±2.0 mV, n=13; 0 Mg^2+: −48.2±1.1 mV, n=10). FIG. 16D. Treatment with bumetanide (Bum, 10 μM), a specific blocker for NKCC1 at low concentrations, induced a hyperpolarizing shift in EGABA (blue line) as compared to a control EGABA (dashed line). […]. […] Kaila et al., “Cation-chloride cotransporters in neuronal development, plasticity and disease” Nature Reviews. Neuroscience 15:637-654 (2014); Dzhala et al., “NKCC1 transporter facilitates seizures in the developing brain” Nature Medicine 11:1205-1213 (2005); and Loscher et al., “Cation-chloride cotransporters NKCC1 and KCC2 as potential targets for novel antiepileptic and antiepileptogenic treatments” Neuropharmacology 69:62-74 (2013). […] FIG. 16E, yellow line; Bum, −68.0±1.7 mV (n=9); 0 Mg^2++Bum, −50.2±1.4 mV (n=9); (p<0.002).

Data set [3] relates to GABA-induced neuronal activity. The data set can be described thus: Cell-attached recording of spike firing elicited by isoguvacine in CA3 pyramidal neurons. It counts as cell-based, mouse. The note with it: P8-9, isoguvacine 10 μM, 30 s. The protocol: Besides EGABA, the effects of different drugs on GABA-induced neuronal activity during epileptogenesis were investigated in neonatal animals (e.g., P8-9). To accurately measure GABA-induced neuronal activity, cell-attached recordings monitored spike firing elicited by local application of the GABAA-R agonist isoguvacine (10 μM, 30 s). Tyzio et al., “Maternal oxytocin triggers a transient inhibitory switch in GABA signaling in the fetal brain during delivery” Science 314:1788-1792 (2006). […] FIG. 16K, control, (n=32). […] FIG. 16K, 0 Mg^2+ (n=19). […] FIG. 16K; 0 Mg^2++Bum (n=19); and 0 Mg^2++VU (n=21). […] FIG. 16K; 0 Mg^2++NaGcA (n=18).

Data set [4] has as its system KA induced neonatal seizure. The data set can be described thus: KA-induced neonatal seizure, in vivo EEG recording. The note with it: for reduction of relative EEG power: last 30 min of a 2-hr recording period after KA injection, neonatal. On the set-up: species or system rat. The protocol: For example, neonatal rats were administered gluconate to determine the effect on in vivo epileptic seizures in neonatal and adult animals. […] FIGS. 14A and 14B; Dzhala et al., “NKCC1 transporter facilitates seizures in the developing brain” Nature Medicine 11:1205-1213 (2005). […] FIGS. 14C and 14D.
To test the in vivo anti-epilepsy effects of gluconate in neonatal and adult rodents, P8-12 Sprague-Dawley rats or 2-month old male C57BL/6 mice were deeply anesthetized with pentobarbital sodium (50 mg/kg for neonatal rat and 100 mg/kg for adult mice, intraperitoneal injection). Two stainless steel screws (1 mm in diameter) were inserted in the skull above the cortex as EEG recording electrodes, one ground electrode as well as one reference electrode were located +1.8 mm anterior to bregma, ±0.5 mm lateral to the midline, and 1 mm below the cortical surface. All electrodes were attached to a micro-connector and fixed onto the skull with dental cement. After surgery, neonatal rats were returned to their mothers and allowed to recover for 2 days prior to subsequent EEG recording. The adult mice were single housed in order to prevent damage of the implanted electrodes and allowed to recover at least 5 days before EEG recording.
The baseline of EEG was recorded for 0.5-1 hr to allow the animal to adapt to the environment. Kainic acid (2 mg/kg) was administered intraperitoneally (i.p.) for neonatal epilepsy induction. D-gluconic acid sodium salt (2 g/kg) or 0.9% saline was injected i.p. 10 min after KA administration. Pentylenetetrazol (PTZ) was administered intraperitoneally for inducing a stable epileptic burst activity in adult mice, and D-gluconic acid sodium salt (1 g/kg and 2 g/kg) or 0.9% saline was injected i.p. 10 min before PTZ administration. Epileptiform activity was monitored for 1 hr after PTZ injection. Qian et al., “Epileptiform response of CA1 neurones to convulsant stimulation by cyclothiazide, kainic acid and pentylenetetrazol in anaesthetized rats” Seizure 20:312-319 (2011). After the experiment, animals were injected with diazepam to protect the animals from recurrent epilepsy.
Power was calculated in 1-min time windows by integrating the power of dominant frequency bands from 1 to 100 Hz (EEG band).

Data set [5] has as its system hippocampal slices. The data set can be described thus: Field potential recording of epileptiform activity in hippocampal slices (CA3 pyramidal layer). The data set is classed as cell-based, mouse. The conditions noted are these: 100 μm (FIG. 10).
The test system of data set [6] is cultured cortical neurons. The data set can be described thus: Epileptiform burst activity in cultured cortical neurons (whole-cell patch-clamp). It counts as cell-based, mouse. The note with it: CTZ 10 μM, 24 hrs, blocker 100 μM. The protocol: Mouse cortical neurons were prepared from newborn C57BL/6 mice as previously described. Qi et al., “Cyclothiazide induces robust epileptiform activity in rat hippocampal neurons both in vitro and in vivo” The Journal Of Physiology 571:605-618 (2006). Briefly, the newborn mouse cerebral cortices were dissected out in ice-cold HEPES-buffered saline solution, washed and digested with 0.05% trypsin-EDTA at 37° C. for 20 min. After deactivation of trypsin with serum-containing medium, cells were centrifuged, resuspended, and seeded on a monolayer of cortical astrocytes at a density of 10,000 cells/cm^2 in 24-well plates. The neuronal culture medium contained MEM (500 ml, Invitrogen), 5% fetal bovine serum (Atlanta Biologicals), 10 ml B-27 supplement (Invitrogen), 100 mg NaHCO3, 2 mM Glutamax (Invitrogen), and 25 units/ml penicillin & streptomycin. AraC (4 μM, Sigma) was added to inhibit the excessive proliferation of astrocytes. Cell cultures were maintained in a 5% CO2-humidified incubator at 37° C. for 14-21 days.
The cultured neurons were placed in the recording chamber with continuous perfusion of the bath solution consisting of (mM): 128 NaCl, 10 Glucose, 25 HEPES, 5 KCl, 2 CaCl2, 1 MgSO4, pH 7.3 adjusted with NaOH, and osmolarity ˜300 mOsm. For recording spontaneous firing under current clamp mode, pipettes were filled with an internal solution containing (in mM): 125 K-gluconate, 5 Na-phosphocreatine, 5 EGTA, 10 KCl, 10 HEPES, 4 Mg-ATP, 0.3 Na-GTP, 280-290 mOsm, pH 7.3 adjusted with KOH. Epileptiform activity in cultured neurons was induced either by 10 μM CTZ for 24 h, or 1 μM KA for 2 h, or 50 μM 4-AP for 2 h. The burst activity was defined as previously described. Qi et al., “Cyclothiazide induces robust epileptiform activity in rat hippocampal neurons both in vitro and in vivo” The Journal Of Physiology 571:605-618 (2006). In brief, at least five consecutive action potentials overlaying on top of the large depolarization shift (≥10 mV depolarization and ≥300 ms in duration).
In general terms: In patch-clamp work, channel activity is measured electrically.

The subject of data set [7] is Cl− channels. In words: Cl− current recording in cultured cortical neurons. The note with it: blocker 100 μM. It counts as cell-based, mouse.
Data set [8] addresses T1, CLC-3 Cl− channels (Mus musculus, UniProt P51791).
T1 construct: CA3 pyramidal neurons of hippocampal slices from neonatal mice; from tissue; host or cells: acute hippocampal slices (CA3 pyramidal neurons), C57BL/6 mice
T1 sequence (P51791 1-818): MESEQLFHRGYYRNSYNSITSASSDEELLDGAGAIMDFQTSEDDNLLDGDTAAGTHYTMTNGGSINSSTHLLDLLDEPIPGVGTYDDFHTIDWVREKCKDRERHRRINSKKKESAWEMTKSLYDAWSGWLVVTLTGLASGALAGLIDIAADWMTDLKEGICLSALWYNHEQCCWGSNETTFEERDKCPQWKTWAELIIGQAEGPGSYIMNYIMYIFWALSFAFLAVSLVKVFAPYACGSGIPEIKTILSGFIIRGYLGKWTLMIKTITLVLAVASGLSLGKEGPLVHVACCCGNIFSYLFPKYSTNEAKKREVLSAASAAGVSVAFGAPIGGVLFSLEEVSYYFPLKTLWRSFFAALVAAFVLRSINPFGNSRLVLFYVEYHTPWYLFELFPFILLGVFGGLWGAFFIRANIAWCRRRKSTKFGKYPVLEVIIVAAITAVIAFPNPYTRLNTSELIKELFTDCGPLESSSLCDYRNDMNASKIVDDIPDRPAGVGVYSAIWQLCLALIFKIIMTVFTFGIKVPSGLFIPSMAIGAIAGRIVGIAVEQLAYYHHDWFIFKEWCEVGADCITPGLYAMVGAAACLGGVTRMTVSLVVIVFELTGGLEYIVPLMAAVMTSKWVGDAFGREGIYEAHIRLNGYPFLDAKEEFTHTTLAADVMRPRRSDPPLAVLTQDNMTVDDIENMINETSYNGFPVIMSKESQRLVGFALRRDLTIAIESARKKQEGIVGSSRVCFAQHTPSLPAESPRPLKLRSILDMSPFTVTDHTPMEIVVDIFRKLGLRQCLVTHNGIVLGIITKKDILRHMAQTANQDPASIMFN
The data set can be described thus: Voltage-dependent outward rectifying Cl− currents in CA3 pyramidal neurons of hippocampal slices. The conditions noted are these: P8-12 neonatal mice; 20 mM NaGcA, 10 mM Mg(GcA)2, 20 mM gluconic acid. It counts as cell-based.

Entries after “also recorded” stand apart in the source; their conditions may differ.

For `CCCCNc1cc(C(=O)O)cc(S(N)(=O)=O)c1Oc1ccccc1` [bumetanide], in data set [1], the “effect in treating neonatal seizure (clinical trial)” value is reported as “very limited effect” and the “side effects (clinical trial)” value was “severe side effects”. Moreover, in data set [2], the “positive EGABA shift induced by 0 Mg2+ aCSF” value is recorded as “did not abolish”, the “EGABA in 0 Mg2+ aCSF” value is on record as −50.2±1.4 mV and the “EGABA in normal aCSF” value is on record as −68.0±1.7 mV. Besides, the “spike activity elicited by isoguvacine after 0 Mg2+ treatment” value in data set [3] was “did not change”. For the same molecule, in data set [4] (P10-12, KA 2 mg/kg i.p., drug i.p. 10 min after KA: NaGcA 2 g/kg, phenobarbital 25 mg/kg, bumetanide 2 mg/kg), the “epileptic seizure (burst) activity in EEG” value is “not as potent as gluconate”. Moreover, in data set [4], the “reduction of relative EEG power” value is 54.3%.
`Cc1csc(NC(=O)CSc2ccc(-c3ccccc3)nn2)n1` [VU0240551]: in data set [2], the “positive EGABA shift induced by 0 Mg2+ aCSF” value is given as “no effect”, the “EGABA in 0 Mg2+ aCSF” value is given as −48.9±1.3 mV and the “EGABA in normal aCSF” value is recorded as −60.8±1.9 mV. In addition, the “spike activity elicited by isoguvacine after 0 Mg2+ treatment” value in data set [3] is recorded as “did not change”.
Regarding `CCC1(c2ccccc2)C(=O)NC(=O)NC1=O` [phenobarbital, reference compound], the “reduction of relative EEG power” value in data set [4] is on record as 35.5%.
For `O=C(O)c1cccnc1Nc1cccc(C(F)(F)F)c1` [NFA, niflumic acid, reference compound], the “epileptic activity in neonatal hippocampal slices (other Cl− channel blockers)” value in data set [5] is “inhibit neonatal seizures”.
For `O=S(=O)([O-])c1cc(N=C=S)ccc1C=Cc1ccc(N=C=S)cc1S(=O)(=O)[O-].[Na+].[Na+]` [DIDS, 4,4′-Diisothiocyanato-2,2′-stilbenedisulfonic acid disodium salt, reference compound], the “epileptiform activity induced by CTZ” value in data set [6] (disodium salt) was “significantly inhibited; also recorded: potently inhibited”. Moreover, the “Cl− currents (inhibition by classic Cl− channel blockers)” value in data set [7] (disodium salt) is given as “significantly suppressed; also recorded: persistent inhibition”.
`O=C(O)c1cc([N+](=O)[O-])ccc1NCCCc1ccccc1` [NPPB, 5-Nitro-2-(3-phenylpropylamino) benzoic acid, reference compound]: in data set [6], the “epileptiform activity induced by CTZ” value is reported as “significantly inhibited; also recorded: potently inhibited”. Also, the “Cl− currents (inhibition by classic Cl− channel blockers)” value in data set [7] is listed as “significantly suppressed; also recorded: inhibited”. Also, the “epileptic activity in neonatal hippocampal slices (other Cl− channel blockers)” value in data set [5] is on record as “inhibit neonatal seizures”.
For magnesium gluconate, in data set [8], the “Cl− current inhibition by gluconic acid with various counter ions” value was “equivalent Cl− current inhibition”.
The same measure, in the same setting: the value for `O=C(O)[C@H](O)[C@@H](O)[C@H](O)[C@H](O)CO` [gluconic acid] was “equivalent Cl− current inhibition”.
